A word on the melting point: it is the temperature of the solid-liquid transition. A word on the IC50: it is the point on the concentration scale where inhibition reaches its midpoint. Low values mean greater potency in that assay, high ones weaker potency in that assay.

The values below come from patent US7700584B2 (Hangzhou Minsheng Pharmaceuticals Co., Ltd., priority 2004, dated 2010).

The structures appear in SMILES notation. Structures can show the parent of a compound that is named as a salt. Where two headings read alike, the source gives them in different places. Where only a bound is given, the exact number is not on record here.

Series [1] concerns MCF-7 human mammary adenocarcinoma. The series can be described thus: In vitro inhibition rate to tumor cells (MTT), MCF-7. It is filed as cell-based. The conditions noted are these: Homo sapiens, MCF7, 50 μg/ml, read-out: inhibition rate, Results (%) MCF-7.
For another series, the system named is MDCK (dog kidney) cells. The series can be described thus: Toxicity TC50 of the samples in MDCK cells (influenza screening). The conditions noted are these: concentration of 50% toxicity.
For series [2], the system named is U-937 human histocytic lymphoma. The series can be described thus: In vitro inhibition rate to tumor cells (MTT), U-937. It is filed as cell-based. The conditions noted are these: for inhibition at 50 µg/mL: Homo sapiens, U-937, 50 μg/ml, read-out: inhibition rate, Results (%) U-937; for inhibition rate, Results (%) U-937: 50 μg/ml.
Series [3] concerns Bel-7402 human hepatic carcinoma. The series can be described thus: In vitro inhibition rate to tumor cells (MTT), Bel-7402. The class given is cell-based. The conditions noted are these: for inhibition at 50 µg/mL: Homo sapiens, Bel-7402, 50 μg/ml, read-out: inhibition rate, Results (%) Bel-7402; for inhibition rate, Results (%) Bel-7402: 50 μg/ml.
A further series deals with Hepatitis B virus (HBV). The class given is cell-based. As to conditions: for (Value of the positive control - Measured Value) Value of the positive control × 100% / OD450 of HBeAg: 200 μg/ml; for (Value of the positive control - Measured Value) Value of the positive control × 100%: decrease of HBeAg relative to positive control; for OD450 of HBeAg: supernatant four days after infection, positive control 1.917, negative 0.057.

A further series has as its system HepG2 cells. The series can be described thus: Cell status of HepG2 cells treated with sample (HBV screening). It is filed as cell-based. The conditions noted are these: 200 μg/ml, HepG2, four days after infection.
The test system of series [4] is LLC mouse Lewis lung carcinoma. The series can be described thus: In vitro inhibition rate to tumor cells (MTT), LLC. The conditions noted are these: 50 μg/ml; for inhibition at 50 µg/mL: Mus musculus, Lewis lung carcinoma. It is filed as cell-based.
Series [5] relates to SMMC-7721 human hepatic carcinoma. The series can be described thus: In vitro inhibition rate to tumor cells (MTT), SMMC-7721. It is filed as cell-based. As to conditions: for inhibition at 50 µg/mL: Homo sapiens, SMMC-7721, 50 μg/ml, read-out: inhibition rate, Results (%) SMMC-7721.
For series [6], the system named is HL-60 human promyelocytic leukemia. The series can be described thus: In vitro inhibition rate to tumor cells (MTT), HL-60. It is filed as cell-based. The conditions noted are these: for inhibition at 50 µg/mL: Homo sapiens, HL-60, 50 μg/ml, read-out: inhibition rate, Results (%) HL-60; for inhibition rate, Results (%) HL-60: 50 μg/ml.
For series [7], the system named is Hela human cervical carcinoma. The series can be described thus: In vitro inhibition rate to tumor cells (MTT), Hela. The class given is cell-based. As to conditions: Homo sapiens, HeLa, 50 μg/ml, read-out: inhibition rate, Results (%) Hela.
For series [8], the system named is A-549 human lung adenocarcinoma. The series can be described thus: In vitro inhibition rate to tumor cells (MTT), A-549. It is filed as cell-based. The conditions noted are these: for inhibition at 50 µg/mL: Homo sapiens, A549, 50 μg/ml, read-out: inhibition rate, Results (%) A-549.
Series [9] has as its target T1, HIV-1 integrase (HIV-1 IN) (Human immunodeficiency virus type 1 group M subtype B, UniProt P04585).
T1 construct: a purified HIV-1 integrase was added into each well; purchased
The series can be described thus: Screening for the activity against HIV-1 integrase. It is filed as biochemical. How it is done:
Principle of the test: A synthetic oligonucleotide of 30 nt was used as the donor substrate. A synthetic oligonucleotide of 20 nt was used as the target substrate. A 96-well plate was covered by the donor substrate, and a purified HIV-1 integrase was added into each well. ELISA was performed to measure the product of the target DNA chain transfer. A biotin-labeled alkali phosphatase was used to visual the system. OD value was measured by an Enzyme-linked Detector. Add a sample into the reaction system for screening the inhibitor of the enzyme.
1. HIV-1 IN: commercially available.
2. Treatment of the samples: Before use, the sample was dissolved in water or DMSO at a suitable concentration, then serially diluted (5×), four serial dilutions per sample. The stock solutions of two samples were 100-fold diluted with DMSO, then 5-fold diluted, four serial dilutions per sample. Positive control: S-y, provided by Shanghai Organic Chemistry Institute.
3. The donor substrate and target substrate: synthesized by Shanghai Biological Engineering Company (Shanghai Shenggong).
4. Methods: The diluted sample was added into a 96-well plate covered by the donor substrate, and then added into the reaction buffer containing the genetic engineered target enzyme and biotin-target substrate, incubated in the optimal reaction conditions. A biotin-labeled alkali phosphatase was used to visual the system to determine the absorbance at 450 nm (OD450).

Series [10] addresses T2, HIV-1 proteinase (HIV-1 PR) (Human immunodeficiency virus type 1 group M subtype B, UniProt P04585).
T2 construct: HIV-1 proteinase digests the fluorescent-labeled substrate; purchased
The series can be described thus: Screening for in vitro activity against HIV-1 proteinase. The class given is biochemical. The protocol: Principle of the test: HIV-1 proteinase digests the fluorescent-labeled substrate in an optimal reaction condition and system. The activity of the enzyme can be reflected by the fluorescent intensity in the product of the enzyme reaction. Adding a sample into the reaction system can be used for screening the inhibitor of the enzyme.
1. HIV-1 PR: commercially available, stored at −85° C.
2. Treatment of the samples: Before use, sample was dissolved in DMSO at a suitable concentration, then serially diluted (5×) with double distilled water, five serial dilutions per sample.
3. Positive control: indinavir, purchased from […].
4. Methods: The diluted sample was added into the reaction buffer containing the fluorescent-labeled substrate. Then the genetic engineered target enzyme was added, and incubated in the optimal reaction condition. The fluorescent value was measured with a FLUO star Galaxy luminoscope.

The target in series [11] is T3, HIV-1 reverse transcriptase (Human immunodeficiency virus type 1 group M subtype B, UniProt P04585).
T3 construct: purchased
The series can be described thus: Screening for the in vitro activity against the HIV-1 reverse transcriptase. The class given is biochemical. How it is done:
Principle of the test: The template to which the HIV-1 reverse transcriptase interacts was covered onto the enzyme-lined template. In the optimal reaction conditions and system, HIV-1 RT will put the substrate comprising Biotin-dUTP onto the reaction template. The activity of the enzyme was measured as the amount of the integrating Biotin-dUTP in the reaction by using streptavidin-labeled horseradish peroxidase. Adding the sample to the reaction system can identify inhibitor of the enzyme.
1. HIV-1 RT: commercially available.
2. Treatment of the samples: Before use, the sample was dissolved in DMSO at a suitable concentration, then serially diluted (5×) with double distilled water, five serial dilutions per sample.
4. Methods: The diluted sample was added into the reaction buffer containing Biotin-dUTP and the genetic engineered target enzyme, and incubated in the optimal reaction conditions. A streptavidin-labeled horseradish peroxidase was added to visual the system, and OD450 was measured.

Turning to `C=C1CC2(OC)OC3(CC2C(C)C)C(C)CCC13` (stereo not shown) [Compound 25, Curcumol methyl ether], the inhibition at 50 µg/mL in series [1] (Table 1) came to 9.53%; in series [1] (Table 2 (repeated screening)), 8.12%; in series [2] (Table 1), 86.9%; in series [2] (Table 2 (repeated screening)), 82.4%; in series [3] (Table 1) it was 5.68%; in series [3] (Table 2 (repeated screening)) it was 2.03%. Further, the inhibition at 50 µg/mL in series [4] (Table 1) was 4.18%; in series [4] (Table 2 (repeated screening)), 1.02%; in [5] (Table 1), 0.24%; in series [5] (Table 2 (repeated screening)), 8.32%; in series [6] (Table 1), -2.63%; in series [6] (Table 2 (repeated screening)), 1.23%. The inhibition at 50 µg/mL in series [7] (Table 1) was found to be 81.9%; in series [7] (Table 2 (repeated screening)) it was 75.5%; in series [8] (Table 1) it was 13.7%; in series [8] (Table 2 (repeated screening)), 14.2%. The compound also returned a TC50 with MDCK (dog kidney) cells of more than 1000 µg/mL. Also, the “(Value of the positive control - Measured Value) Value of the positive control × 100%” value with Hepatitis B virus (HBV) is on record as −31.8206%. Also, in the series on Hepatitis B virus (HBV), the “OD450 of HBeAg” value is 2.527. For the same compound, the Cell status entry in the series with HepG2 cells was “Poor”.

Compound `CC(C)C1CC23OC1(O)C/C(=C\NC(C)(C)C)C2CCC3C` (stereo not shown) (as salt: hydrochloride) [Compound 16, Curcumol t-butyl amine hydrochloride] came in with a melting point of 115 to 116 °C.

`CC(C)C1CC23OC1(O)C/C(=C\NC(C)(C)C)C2CCC3C` (stereo not shown) [Compound 15, Curcumol t-butyl amine]: the melting point was 79 to 80 °C. Also, the inhibition at 50 µg/mL in series [1] (Table 1) is 65.3%. For the same compound, the inhibition at 50 µg/mL in series [1] (Table 2 (repeated screening)) stood at 60.1%. Also, the “inhibition rate, Results (%) U-937” value in [2] (Table 1) was 57.32%. Further, the “inhibition rate, Results (%) U-937” value in [2] (Table 2 (repeated screening)) turned out to be 50.12%. Further, the “inhibition rate, Results (%) Bel-7402” value in series [3] (Table 1) came to 32.98%. Further, the “inhibition rate, Results (%) Bel-7402” value in series [3] (Table 2 (repeated screening)) is 31.20%. Further, the “inhibition rate, Results (%) LLC” value in series [4] (Table 1) is −11.83%. Moreover, the “inhibition rate, Results (%) LLC” value in series [4] (Table 2 (repeated screening)) is given as −10.12%. In series [5] (50 μg/ml, Table 2 (repeated screening)), the “inhibition rate, Results (%) SMMC-7721” value was −8.60%. Also, the inhibition at 50 µg/mL in series [5] (Table 1) was -2.5%. In [6] (Table 1), the “inhibition rate, Results (%) HL-60” value was 8.23%. Also, the “inhibition rate, Results (%) HL-60” value in [6] (Table 2 (repeated screening)) came out at 2.98%. For the same compound, in series [7] (Table 1), the inhibition at 50 µg/mL came out at 70%. Moreover, the inhibition at 50 µg/mL in series [7] (Table 2 (repeated screening)) is 71.4%. In addition, the “inhibition rate, Results (%) A-549” value in series [8] (50 μg/ml, Table 1) amounted to 17.43%. The inhibition at 50 µg/mL in series [8] (Table 2 (repeated screening)) turned out to be 12.3%.

For `C=C1CC2(OC(=O)CCC)OC3(CC2C(C)C)C(C)CCC13` (stereo not shown) [Compound 2, Curcumol butyrate], the inhibition at 50 µg/mL in [1] (Table 1) stood at 46%; in series [1] (Table 2 (repeated screening)), 41.8%; in [2] (Table 1) it was 71.2%; in series [2] (Table 2 (repeated screening)), 70.3%; in [3] (Table 1), 23.3%; in series [3] (Table 2 (repeated screening)), 12.8%. Moreover, the inhibition at 50 µg/mL came to 2.98% in series [4] (Table 1); 0.32% in series [4] (Table 2 (repeated screening)); 12.3% in series [5] (Table 1); 14.7% in series [5] (Table 2 (repeated screening)); 12.3% in [6] (Table 1); 18% in [6] (Table 2 (repeated screening)). For the same compound, the inhibition at 50 µg/mL in series [7] (Table 1) is 70.6%; in [7] (Table 2 (repeated screening)), 75.2%; in [8] (Table 1), 4.93%; in series [8] (Table 2 (repeated screening)), 9.23%; in [10] (read-out: Inhibition rate, 50 μg/ml) it was 12.7%. Besides, the TC50 with MDCK (dog kidney) cells (given as dilution of the stock solution) was 1/12150 of the stock solution. The IC50 was 116 µM in series [9]; more than 163 µM in [10] (IC50, five 5× serial dilutions from 50 μg/ml); less than 392 µM in series [11] (IC50, initial concentration 1/150 of the stock solution). For the same compound, in the series with Hepatitis B virus (HBV), the “(Value of the positive control - Measured Value) Value of the positive control × 100%” value was determined as 68.34%. Also, in the series with Hepatitis B virus (HBV), the “OD450 of HBeAg” value was determined as 0.607. Also, in the series on Hepatitis B virus (HBV) (primary screening, HBV e antigen, HepG2, 13 samples), the “activity against HBV (in words)” value is given as “had the activity against HBV”. The Cell status result with HepG2 cells is on record as “Normal”. Further, the inhibition at 0.08 µg/mL in series [10] (0.08 μg/ml, read-out: Inhibition rate) turned out to be 4.13%. Moreover, the inhibition at 0.4 µg/mL in series [10] (0.40 μg/ml, read-out: Inhibition rate) is 8.64%. Further, the inhibition at 2 µg/mL in series [10] (2.0 μg/ml, read-out: Inhibition rate) is 2.98%. The inhibition at 10 µg/mL in series [10] (10 μg/ml, read-out: Inhibition rate) was determined as 12.2%. Besides, the “inhibition rate of HIV-1 reverse transcriptase” value in series [11] (120 ug/ml) turned out to be 60%.

For the compound `CC(C)C1CC23OC1(O)C/C(=C\Nc1ccc(O)cc1)C2CCC3C` (stereo not shown) (as salt: hydrochloride) [Compound 6, Curcumol p-hydroxy aniline hydrochloride], the melting point was in the range of 147.5 to 149.5 °C.

Take `CC(C)C1CC23OC1(O)CC(=CN1CCNCC1)C2CCC3C` (stereo not shown) (as salt: hydrochloride) [Compound 8, Curcumol piperazine hydrochloride]: the melting point fell in the range of 150 to 152 °C.
